IC50 and EC50 data for 17 molecules are collected here from patent US20250129069A1, “TRIAZOLO WRN INHIBITORS” (Nimbus Wadjet, Inc., priority 2023, published 2025).

Assay [1] addresses human Werner helicase (WRN, amino acids 517-1235 with L1074F point mutation) (Homo sapiens (Human), UniProt Q14191, L1074F). As to the kind of experiment: WRN (BV08) ADP-Glo assay. It is filed as biochemical. To be noted: human WRN (aa 517-1235, L1074F), read-out: ADP-Glo_hWRN_IC50. A digest of the protocol:
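ADP-Glo luminescence read after 60 min, 25 °C reaction of 0.15 nM WRN (517-1235, L1074F, Sf9-expressed, tag removed) with 0.1 nM DNA duplex and 5 μM ATP, following 15 min compound preincubation; 20 mM Bicine pH 7.5, 1% DMSO. IC50 from 3- or 4-parameter fit of % inhibition.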

Assay [2] has as its system p21 induction in HCT 116 cells. As to the kind of experiment: p21 induction in cells (In-Cell Western, p21/GAPDH ratio). Type of assay: cell-based. The note with it: Homo sapiens, 24 h compound incubation, read-out: p21_EC50. In outline: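 EC50 values come from nonlinear fits of percent activation, defined by the 800/700 nm p21-to-GAPDH ratio scaled between DMSO (low) and internal WRN inhibitor (high) controls. In-Cell Western read after 24 h compound exposure of HCT 116 cells at 37° C. Duplicate 11-point series, 2-fold steps, usually starting at 10 μM.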

human Werner helicase (WRN, amino acids 517-1235 with L1074F point mutation), sequence (Q14191 other isoform, or with tags, fused parts or gaps L1074F (already in the parent)): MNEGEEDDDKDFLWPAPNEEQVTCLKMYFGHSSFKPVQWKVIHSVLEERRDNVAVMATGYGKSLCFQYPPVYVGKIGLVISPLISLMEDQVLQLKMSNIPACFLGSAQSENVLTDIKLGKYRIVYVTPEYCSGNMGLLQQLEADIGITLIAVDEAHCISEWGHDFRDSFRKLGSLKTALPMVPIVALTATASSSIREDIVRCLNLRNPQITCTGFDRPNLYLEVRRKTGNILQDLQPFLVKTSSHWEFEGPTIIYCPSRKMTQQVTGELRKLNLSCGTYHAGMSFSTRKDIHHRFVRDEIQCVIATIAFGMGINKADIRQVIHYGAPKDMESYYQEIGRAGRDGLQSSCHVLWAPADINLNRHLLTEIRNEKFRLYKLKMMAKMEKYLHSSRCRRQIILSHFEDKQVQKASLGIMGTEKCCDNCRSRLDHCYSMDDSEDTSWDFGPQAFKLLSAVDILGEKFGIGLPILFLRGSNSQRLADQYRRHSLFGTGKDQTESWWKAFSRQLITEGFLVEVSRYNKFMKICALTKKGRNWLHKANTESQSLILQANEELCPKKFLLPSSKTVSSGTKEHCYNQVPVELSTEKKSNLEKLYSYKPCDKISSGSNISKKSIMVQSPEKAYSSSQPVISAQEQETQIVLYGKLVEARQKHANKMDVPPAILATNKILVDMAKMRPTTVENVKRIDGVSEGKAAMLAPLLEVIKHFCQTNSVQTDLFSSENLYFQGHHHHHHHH

For `CCc1c(N2CCN(C(=O)c3ncnc(C)c3O)[C@H]3CC[C@@H]32)c(=O)c2nn(-c3ccnc(OC)c3)nc2n1CC(=O)NC12CC(C(C)(F)F)(C1)C2` [Compound I-27, N-(3-(1,1-difluoroethyl)bicyclo[1.1.1]pentan-1-yl)-2-(5-ethyl-6-((1S,6S)-5-(5-hydroxy-6-methylpyrimidine-4-carbonyl)-2,5-diazabicyclo[4.2.0]octan-2-yl)-2-(2-methoxypyridin-4-yl)-7-oxo-2,7-dihydro-4H-[1,2,3]triazolo[4,5-b]pyridin-4-yl)acetamide], the IC50 in assay [1] lay within 5 to 50 nM. Besides, the EC50 in assay [2] was not above 500 nM.
On to `CCc1c(N2CCN(C(=O)c3ncc4c(c3O)CCO4)CC2)c(=O)c2nn(-c3ccnc(OC)c3)nc2n1CC(=O)Nc1ccc(C(F)(F)F)cc1Cl` [Compound I-152, N-[2-chloro-4-(trifluoromethyl)phenyl]-2-[5-ethyl-6-(4-{4-hydroxy-2H,3H-furo[2,3-c]pyridine-5-carbonyl}piperazin-1-yl)-2-(2-methoxypyridin-4-yl)-7-oxo-2H,4H,7H-[1,2,3]triazolo[4,5-b]pyridin-4-yl]acetamide], for which the IC50 in assay [1] is not above 5 nM. Further, the EC50 in assay [2] is not above 500 nM.
Regarding `CCc1c(N2CCN(C(=O)c3ncnc(C)c3O)[C@H]3CC[C@@H]32)c(=O)c2nn(-c3ccnc(OC)c3)nc2n1CC(=O)Nc1ccc(C(F)F)cc1F` [Compound I-83, N-[4-(difluoromethyl)-2-fluorophenyl]-2-{5-ethyl-6-[(1S,6S)-5-(5-hydroxy-6-methylpyrimidine-4-carbonyl)-2,5-diazabicyclo[4.2.0]octan-2-yl]-2-(2-methoxypyridin-4-yl)-7-oxo-2H,4H,7H-[1,2,3]triazolo[4,5-b]pyridin-4-yl}acetamide], in assay [1], the IC50 was not above 5 nM. Also, in assay [2], the EC50 was not above 500 nM.
As to `CCc1c(N2CCN(C(=O)c3cccc4ncoc34)[C@H]3CC[C@@H]32)c(=O)c2nn(C3=CCOCC3)nc2n1CC(=O)Nc1ccc(C(F)(F)F)cc1Cl` [Compound I-115, 2-{6-[(1S,6S)-5-(1,3-benzoxazole-7-carbonyl)-2,5-diazabicyclo[4.2.0]octan-2-yl]-2-(3,6-dihydro-2H-pyran-4-yl)-5-ethyl-7-oxo-2H,4H,7H-[1,2,3]triazolo[4,5-b]pyridin-4-yl}-N-[2-chloro-4-(trifluoromethyl)phenyl]acetamide], in assay [1], the IC50 fell in the range of 5 to 50 nM. In assay [2], the EC50 is not above 500 nM.
Consider `CCc1c(N2CCN(C(=O)c3ccccc3OC)[C@H]3CC[C@@H]32)c(=O)c2nn(C3=CCOCC3)nc2n1CC(=O)NC12CC(C(C)C)(C1)C2` [Compound I-53, 2-[2-(3,6-dihydro-2H-pyran-4-yl)-5-ethyl-6-[(1S,6S)-5-(2-methoxybenzoyl)-2,5-diazabicyclo[4.2.0]octan-2-yl]-7-oxo-2H,4H,7H-[1,2,3]triazolo[4,5-b]pyridin-4-yl]-N-[3-(propan-2-yl)bicyclo[1.1.1]pentan-1-yl]acetamide], for which the IC50 in assay [1] fell in the range of 5 to 50 nM. Moreover, in assay [2], the EC50 is not above 500 nM.
As to `CCc1c(N2CCN(C(=O)c3c(OC)ncc([C@@H]4CCOC4)c3O)CC2)c(=O)c2nn(-c3ccnc(OC)c3)nc2n1CC(=O)NC12CC(C(C)C)(C1)C2` (single isomer, unassigned) [Compound I-44], the IC50 in assay [1] is 5 to 50 nM. For the same molecule, the EC50 in assay [2] was not above 500 nM.
Taken in the same sequence, the figures for `CCc1c(N2CCN(C(=O)c3ccncc3OC)[C@H]3CC[C@@H]32)c(=O)c2nn(C3=CCOCC3)nc2n1CC(=O)NC12CC(C(C)C)(C1)C2` [Compound I-208, 2-[2-(3,6-dihydro-2H-pyran-4-yl)-5-ethyl-6-[(1S,6S)-5-(3-methoxypyridine-4-carbonyl)-2,5-diazabicyclo[4.2.0]octan-2-yl]-7-oxo-2H,4H,7H-[1,2,3]triazolo[4,5-b]pyridin-4-yl]-N-[3-(propan-2-yl)bicyclo[1.1.1]pentan-1-yl]acetamide] were 5 to 50 nM and 500 to 2000 nM.
For `CCc1c(N2CCN(C(=O)c3ncnc(C)c3O)[C@H]3CC[C@@H]32)c(=O)c2nn(C3=CCO[C@H](C)C3)nc2n1CC(=O)NC12CC(C3CC3)(C1)C2` (single isomer, unassigned) [Compound I-180], the IC50 in assay [1] lay within 5 to 50 nM. Also, the EC50 in assay [2] was not above 500 nM.
As to `CCc1c(N2CCN(C(=O)c3ncnc(C)c3O)[C@H]3CC[C@@H]32)c(=O)c2nn(-c3ccnc(OC)c3)nc2n1CC(=O)NC12CC(OC(F)(F)F)(C1)C2` [Compound I-29, 2-(5-ethyl-6-((1S,6S)-5-(5-hydroxy-6-methylpyrimidine-4-carbonyl)-2,5-diazabicyclo[4.2.0]octan-2-yl)-2-(2-methoxypyridin-4-yl)-7-oxo-2,7-dihydro-4H-[1,2,3]triazolo[4,5-b]pyridin-4-yl)-N-(3-(trifluoromethoxy)bicyclo[1.1.1]pentan-1-yl)acetamide], in assay [1], the IC50 is 5 to 50 nM. Also, the EC50 in assay [2] is not above 500 nM.
Taken in the same sequence, the figures for `CCc1c(N2CCN(C(=O)c3c(OC(F)F)ncc(C)c3O)CC2)c(=O)c2nn(-c3ccnc(OC)c3)nc2n1CC(=O)NC12CC(C(C)C)(C1)C2` [Compound I-56, 2-(6-{4-[2-(difluoromethoxy)-4-hydroxy-5-methylpyridine-3-carbonyl]piperazin-1-yl}-5-ethyl-2-(2-methoxypyridin-4-yl)-7-oxo-2H,4H,7H-[1,2,3]triazolo[4,5-b]pyridin-4-yl)-N-[3-(propan-2-yl)bicyclo[1.1.1]pentan-1-yl]acetamide] were 5 to 50 nM and not above 500 nM.
The matching figures for `CCc1c(N2CCN(C(=O)c3c(OC)ncc(C)c3O)CC2)c(=O)c2nn(-c3ccnc(OC)c3)nc2n1CC(=O)NC12CC(C(C)C)(C1)C2` [Compound I-114, 2-{5-ethyl-6-[4-(4-hydroxy-2-methoxy-5-methylpyridine-3-carbonyl)piperazin-1-yl]-2-(2-methoxypyridin-4-yl)-7-oxo-2H,4H,7H-[1,2,3]triazolo[4,5-b]pyridin-4-yl}-N-[3-(propan-2-yl)bicyclo[1.1.1]pentan-1-yl]acetamide]: 5 to 50 nM and not above 500 nM.
Consider `CCc1c(N2CCN(C(=O)c3c(Oc4cnn(C)c4)ncc(C)c3O)CC2)c(=O)c2nn(-c3ccnc(OC)c3)nc2n1CC(=O)NC12CC(C(C)C)(C1)C2` [Compound I-63, 2-[5-ethyl-6-(4-{4-hydroxy-5-methyl-2-[(1-methyl-1H-pyrazol-4-yl)oxy]pyridine-3-carbonyl}piperazin-1-yl)-2-(2-methoxypyridin-4-yl)-7-oxo-2H,4H,7H-[1,2,3]triazolo[4,5-b]pyridin-4-yl]-N-[3-(propan-2-yl)bicyclo[1.1.1]pentan-1-yl]acetamide], for which the IC50 in assay [1] lay within 5 to 50 nM. Also, in assay [2], the EC50 was not above 500 nM.
As for `CCc1c(N2CCN(C(=O)c3ncccc3OC)[C@H]3CC[C@@H]32)c(=O)c2nn(C3=CCOCC3)nc2n1CC(=O)NC12CC(C(C)C)(C1)C2` [Compound I-204, 2-[2-(3,6-dihydro-2H-pyran-4-yl)-5-ethyl-6-[(1S,6S)-5-(3-methoxypyridine-2-carbonyl)-2,5-diazabicyclo[4.2.0]octan-2-yl]-7-oxo-2H,4H,7H-[1,2,3]triazolo[4,5-b]pyridin-4-yl]-N-[3-(propan-2-yl)bicyclo[1.1.1]pentan-1-yl]acetamide], the IC50 in assay [1] is 5 to 50 nM. In addition, the EC50 in assay [2] was in the range of 500 to 2000 nM.
The matching figures for `CCc1c(N2CCN(C(=O)c3cccc4c3OCC4)[C@H]3CC[C@@H]32)c(=O)c2nn(-c3ccnc(OC)c3)nc2n1CC(=O)Nc1ccc(C(F)(F)F)cc1Cl` [Compound I-120, N-[2-chloro-4-(trifluoromethyl)phenyl]-2-{6-[(1S,6S)-5-(2,3-dihydro-1-benzofuran-7-carbonyl)-2,5-diazabicyclo[4.2.0]octan-2-yl]-5-ethyl-2-(2-methoxypyridin-4-yl)-7-oxo-2H,4H,7H-[1,2,3]triazolo[4,5-b]pyridin-4-yl}acetamide]: 5 to 50 nM and 500 to 2000 nM.
Consider `CCc1c(N2CCN(C(=O)c3c(O)ccc4ncoc34)[C@H]3CC[C@@H]32)c(=O)c2nn(-c3ccnc(OC)c3)nc2n1CC(=O)NC12CC(C(C)C)(C1)C2` [Compound I-137, 2-{5-ethyl-6-[(1S,6S)-5-(6-hydroxy-1,3-benzoxazole-7-carbonyl)-2,5-diazabicyclo[4.2.0]octan-2-yl]-2-(2-methoxypyridin-4-yl)-7-oxo-2H,4H,7H-[1,2,3]triazolo[4,5-b]pyridin-4-yl}-N-[3-(propan-2-yl)bicyclo[1.1.1]pentan-1-yl]acetamide], for which the IC50 in assay [1] was not above 5 nM. Besides, the EC50 in assay [2] was not above 500 nM.
Turning to `CCc1c(N2CCN(C(=O)c3ncnc(C)c3O)[C@H]3CC[C@@H]32)c(=O)c2nn(-c3ccnc(OC)c3)nc2n1CC(=O)NC1CCC2(CCC2)C1` (stereo partly drawn) [Compound I-66, 2-{5-ethyl-6-[(1S,6S)-5-(5-hydroxy-6-methylpyrimidine-4-carbonyl)-2,5-diazabicyclo[4.2.0]octan-2-yl]-2-(2-methoxypyridin-4-yl)-7-oxo-2H,4H,7H-[1,2,3]triazolo[4,5-b]pyridin-4-yl}-N-{spiro[3.4]octan-6-yl}acetamide], the IC50 in assay [1] lay within 5 to 50 nM. Further, the EC50 in assay [2] is not above 500 nM.
For `CCc1c(N2CCN(C(=O)c3c(OC)ncc(C)c3O)[C@H]3CC[C@@H]32)c(=O)c2nn(-c3ccnc(C)c3)nc2n1CC(=O)NC12CC(C(C)C)(C1)C2` [Compound I-94, 2-{5-ethyl-6-[(1S,6S)-5-(4-hydroxy-2-methoxy-5-methylpyridine-3-carbonyl)-2,5-diazabicyclo[4.2.0]octan-2-yl]-2-(2-methylpyridin-4-yl)-7-oxo-2H,4H,7H-[1,2,3]triazolo[4,5-b]pyridin-4-yl}-N-[3-(propan-2-yl)bicyclo[1.1.1]pentan-1-yl]acetamide], the IC50 in assay [1] fell in the range of 5 to 50 nM. The EC50 in assay [2] was not above 500 nM.
